Where a name gives a salt, the structure may show the parent alone. Read-outs that look alike come from different tables or passages of the source.
How the values were obtained:
[1] = tested on: iCell cardiomyocytes (human iPSC-derived cardiomyocytes); assay: High-content imaging of cytotoxicity and mitochondrial integrity in iPSC-CMs; assay type: cell-based; conditions: for minimal effective concentration: Homo sapiens, Cardiomyocyte, cardiomyocytes (cm); for effect on cell viability in iPSC-CMs: 0.01-100 μM, 90 min and 24 h
Method in brief: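 This assay measured cytotoxicity and mitochondrial integrity in iPSC cardiomyocytes held in 40μL maintenance medium. After compound exposure, a 2× staining solution with Hoechst 33342 (4μg/mL) and MitoTracker™ Orange (0.4μM) was applied for 15 min at 37°C. Cells were washed, fixed with 3.7% formaldehyde, imaged on DAPI and Cy3 channels, and scored in MetaXpress®.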

HUVECs = assay: High-content imaging cytotoxicity in HUVECs, 24 h; assay type: cell-based, human; conditions: Homo sapiens, HUVEC, 24 h, HUVEC, 24 hr
Method in brief: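 Read-out: multiwavelength high-content imaging of Hoechst 33342, MitoTracker Orange and calcein AM after 24 h compound exposure of confluent HUVEC monolayers. POD values were set using a one-SD cutoff from vehicle (0.5% DMSO) means; with no concentration–response, 100μM was assigned as no observable adverse effect level.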

[2] = 1.5 h, cam, 90 min, read-out: POD cm.cam.90min
[3] = 1.5 h, mii, 90 min, read-out: POD cm.mii.90min
[4] = 1.5 h, mito, 90 min, read-out: POD cm.mito.90min
[5] = 1.5 h, tc, 90 min, read-out: POD cm.tc.90min
[6] = 24 h, cam, 24 hrs, read-out: POD cm.cam.24hrs
[7] = 24 h, mii, 24 hrs, read-out: POD cm.mii.24hrs
[8] = 24 h, mito, 24 hrs, read-out: POD cm.mito.24hrs
[9] = 24 h, tc, 24 hrs, read-out: POD cm.tc.24hrs
[10] = cyto, read-out: POD huvec.cyto.24hr
[11] = mito, read-out: POD huvec.mito.24hr
[12] = mitoint, read-out: POD huvec.mitoint.24hr
[13] = nma, read-out: POD huvec.nma.24hr
[14] = tc, read-out: POD huvec.tc.24hr

Row | SMILES | minimal effective concentration [1, 2] | minimal effective concentration [1, 3] | minimal effective concentration [1, 4] | minimal effective concentration [1, 5] | minimal effective concentration [1, 6] | minimal effective concentration [1, 7] | minimal effective concentration [1, 8] | minimal effective concentration [1, 9] | minimal effective concentration (HUVECs; [10]) | minimal effective concentration (HUVECs; [11]) | minimal effective concentration (HUVECs; [12]) | minimal effective concentration (HUVECs; [13]) | minimal effective concentration (HUVECs; [14]) | effect on cell viability in iPSC-CMs [1]
1 | O=S(=O)(O)Oc1ccc(-c2cccc(Cl)c2)cc1Cl [4-PCB 11 sulfate] | 100 µM | 100 µM | 100 µM | 100 µM | 5.91 µM | 49.2 µM | 7.07 µM | 6.38 µM | 48.8 µM | 45.1 µM | 10.8 µM | 2.98 µM | 48.8 µM | –
2 | COc1ccc(-c2ccc(Cl)cc2)cc1 [4'-OMe-PCB 3, 4′-methoxy-4-chlorobiphenyl] | 100 µM | 100 µM | 100 µM | 100 µM | 82.9 µM | 100 µM | 100 µM | 100 µM | 8.6 µM | 5.97 µM | 32 µM | 1.41 µM | 8.6 µM | little effect on cell viability
3 | Clc1ccc(-c2cc(Cl)c(Cl)c(Cl)c2)cc1Cl [PCB 126, 3,3′,4,4′,5-pentachlorobiphenyl] | 100 µM | 100 µM | 100 µM | 100 µM | 7.03 µM | 100 µM | 7.54 µM | 6.48 µM | 5.33 µM | 100 µM | 100 µM | 100 µM | 5.33 µM | little effect on cell viability
4 | COc1cc(Cl)c(-c2cc(Cl)ccc2Cl)cc1Cl [4-OMe-PCB 52, 4-methoxy-2,2′,5,5′-tetrachlorobiphenyl] | 27.6 µM | 57.2 µM | 18.6 µM | 33 µM | 33 µM | 5.58 µM | 35.8 µM | 35 µM | 0.78 µM | 0.55 µM | 2.69 µM | 2.36 µM | 0.78 µM | –

— paper PMC7377239, “Cardiovascular Effects of Polychlorinated Biphenyls and Their Major Metabolites” (Environmental Health Perspectives, 2020)
